{
  "source": "patent US10632324B2",
  "about": "“Method for the treatment of skin tissues” (9127-4910 Quebec Inc., priority 2017, dated 2020)",
  "key": {"[1]": {"test_system": "facial papulo-pustular inflammatory acne lesions", "assay": "Split-face radiant IR skin preparation prior to PDT, inflammatory acne of the face (Example 6)", "type": "in vivo, human", "protocol": "A person was treated for facial papulo-pustular inflammatory acne lesions. After performing an acetone scrub on the treatment area, a radiant IR skin preparation was done on the right side of their face (970 nm, 80 mW/cm2, for 30 min). Then 5-aminolevulinic acid (Levulan™ Kerastick™) was applied to the skin and left for 90 min incubation time. […] Radiant IR skin preparation allows for a reduction in the number of PDT treatments necessary for significant clinical improvements."}, "inflammatory acne": {"test_system": "inflammatory acne", "assay": "Randomized, controlled, rater-blinded split face/back trial of IR pre-treatment plus ALA-PDT vs ALA-PDT alone (Example 9)", "type": "in vivo, human", "details": "for Change from Baseline in Lesion Counts, Closed comedones, Median / Change from Baseline in Lesion Counts, Nodules, Median / Change from Baseline in Lesion Counts, Open comedones, Median / Change from Baseline in Lesion Counts, Papules, Median / Change from Baseline in Lesion Counts, Pustules, Median / Change from Baseline in Lesion Counts, Total Noninflammatory lesions, Median: week 4; for Change from Baseline in Lesion Counts, Total Inflammatory lesions, Median: week 4 (reduction); for Clinical Global Severity Assessment at Week-4, Median: six-point scale, grade 0 clear to 5 very severe (Table 1)", "protocol": "One side was pre-treated for 15 minutes with radiant IR light emitting diode (LED) (970 nm), while the other side was used as control. ALA was then applied after which PDT LED (630 nm) was performed on the entire face or back surface. Blinded lesion counts and clinical global assessment of severity were performed based on digital photographs before and four weeks after the PDT procedure.\nInclusion criteria included patients with skin type I to III according to the Fitzpatrick Classification System [^xxviii]. Exclusion criteria comprised patients taking cortisone (Prednisone), anticoagulant therapy, or any drug known to increase photosensitivity. In addition, during the 12 months preceding the study, patients were required not to have used isotretinoin (Accutane), or applied topical steroids on the site to be treated. Moreover, oral antibiotics use, laser or topical anti-acne medication at the to-be-treated site were not permitted for eight weeks prior to the study. Patients gave written informed consent to participate in this trial in compliance with the US Code of Federal Regulations dealing with the conduct of clinical studies (21 CFR including parts 50 and 56 concerning informed consent and IRB regulations). The study was conducted according to Good Clinical Practice Guidelines and the principles of the Declaration of Helsinki, and was approved by the Institutional Review Board Services (Div. 1373737 Toronto, Canada).\nPatients were assigned to a split face or split back group to allow for within-patient assessments of clinical effects. Assignment was based on the patient's problem area. One side was randomly (using a coin flip) assigned to receive IR pre-treatment and ALA-PDT, and the other ALA-PDT alone to serve as control. The IR pre-treatment consisted of a 15 minute exposure to radiant IR LED at 970 nm ([…] using the LumiPhase-R/IR™, OPUSMED Inc. Montreal, Canada) to reach peak H2O absorption inside-out temperature of 45° C. Papillary dermis temperature was monitored with a needle probe throughout the session and up to 40 minutes (Type-T thermocouple, Omega, Montreal, Canada). ALA (20% Levulan Kerastick, DUSA Pharmaceuticals, USA) was then applied on both sides for 60 minutes, after which PDT with LED at 630 nm (50 mW/cm^2, 70 J/cm^2) was performed on the entire face or back surface for a duration of 23 minutes (LumiPhase-R/B™, OPUSMED Inc. Montreal, Canada). No cooling method was used. Digital photographs (Canon Dual Flash EOS 10D, Canon, Tokyo, Japan with EX SIGMA 50 mm 1:2.8 macro lens, Sigma, Aizu, Japan) were taken prior to and four weeks after the procedure. Each photograph was taken maintaining identical ambient lighting, pose and camera angles.\nAcne lesion counts were performed before and four weeks after the PDT treatment. All types of inflammatory (papules, pustules, nodules) and noninflammatory (open and closed comedones) acne lesions were counted. Lesion counts were performed based on the digital photographs by two non-treating physicians who were blinded to the treatment regimen (IR-treated or control side) and to the timing of the photographs (baseline or post-treatment).\nThe global severity of acne was assessed at the end of the study by the […] non-treating physicians, as described above, using a six-point rating scale (Table 1). Clinical success was defined by grades 0 (clear) or 1 (almost clear).\nAdverse reactions were monitored throughout the study. Signs of erythema, oedema, scaling/crusting, bronzing, textural changes, hyperpigmentation, and hypopigmentation were documented during the time period of the clinical trial.\nCronbach's alpha was calculated to assess inter-rater reliability in assessments. Reliability was deemed acceptable if Cronbach alpha was […] allowing raters' assessments to be combined for analysis. The primary outcome variable was the percent change from baseline in inflammatory lesion count measured four weeks post-treatment. […]"}, "[2]": {"test_system": "conversion of 5-ALA to PpIX", "assay": "FluoDerm fluorescence after 940 nm irradiation 8-53 h before 5-ALA, two subjects (Example 11)", "type": "in vivo, human", "parameters": "unit not given here", "protocol": "In view of these promising results, another study with even longer delays before application of 5-ALA was performed. The back skin of two test subjects was irradiated with continuous wavelength and pulsed infrared light at 940 nm. These irradiations took place 50-53, 24-29, and 8-14 hours prior to the application of the 5-ALA. After a three-hour incubation period with the compound, a FluoDerm™ device was used to measure the fluorescence of the skin ([…]) a direct indication of the activity of 5-ALA. 5-ALA must penetrate the skin and then be converted to PpIX before any fluorescence increase can be observed. […] Conclusion: This preconditioning method uses a temperature-independent mechanism of action via cell signaling pathways as in photobiomodulation."}, "[3]": {"test_system": "actinic keratosis lesions", "assay": "Split-face radiant IR skin preparation prior to PDT, actinic keratosis of face and scalp (Example 5)", "details": "single PDT treatment"}},
  "note": "Several values for one entry are separate records, joined by “and”; a condition that tells them apart may be missing. Identical values can stand only once. Entries after “also recorded” stand apart in the source; their conditions may differ.",
  "data": [
    {"smiles": "NCC(=O)CCC(=O)O", "note": "[5-ALA, 5-aminolevulinic acid]", "values": [
      {"measurement": "lesion number reduction", "setting": "[1]; IR treated side (970 nm, 80 mW/cm2, 30 min), 90 min incubation, one treatment", "result": "60-70%"},
      {"measurement": "clinical outcome of side without IR", "setting": "[1]; untreated (no IR) side, PDT alone", "result": "needed an additional PDT session to achieve similar results"},
      {"measurement": "Change from Baseline in Lesion Counts, Closed comedones, Median", "setting": "inflammatory acne; Control side (ALA-PDT alone)", "result": 0.00, "unit": "%"},
      {"measurement": "Change from Baseline in Lesion Counts, Nodules, Median", "setting": "inflammatory acne; Control side (ALA-PDT alone)", "result": 20.00, "unit": "%"},
      {"measurement": "Change from Baseline in Lesion Counts, Open comedones, Median", "setting": "inflammatory acne; Control side (ALA-PDT alone)", "result": 0.00, "unit": "%"},
      {"measurement": "Change from Baseline in Lesion Counts, Papules, Median", "setting": "inflammatory acne; Control side (ALA-PDT alone)", "result": 38.10, "unit": "%"},
      {"measurement": "Change from Baseline in Lesion Counts, Pustules, Median", "setting": "inflammatory acne; Control side (ALA-PDT alone)", "result": 0.00, "unit": "%"},
      {"measurement": "Change from Baseline in Lesion Counts, Total Noninflammatory lesions, Median", "setting": "inflammatory acne; Control side (ALA-PDT alone)", "result": 0.00, "unit": "%"},
      {"measurement": "Change from Baseline in Lesion Counts, Total Inflammatory lesions, Median", "setting": "inflammatory acne; Control side (ALA-PDT alone), listed as ALA", "result": "38% and 37.86%"},
      {"measurement": "Clinical Global Severity Assessment at Week-4, Median", "setting": "inflammatory acne; Control side", "result": 2},
      {"measurement": "treatment-related adverse effects / tolerability", "setting": "inflammatory acne; IR pre-treatment + ALA-PDT and ALA-PDT alone, listed as ALA", "result": "No unusual treatment-related adverse effects were observed; also recorded: overall well tolerated"},
      {"measurement": "Clinical Global Severity Assessment at Week-4, Median", "setting": "inflammatory acne; IR-Treated side", "result": 1},
      {"measurement": "Change from Baseline in Lesion Counts, Closed comedones, Median", "setting": "inflammatory acne; IR-Treated side", "result": 0.00, "unit": "%"},
      {"measurement": "Change from Baseline in Lesion Counts, Nodules, Median", "setting": "inflammatory acne; IR-Treated side", "result": 100.00, "unit": "%"},
      {"measurement": "Change from Baseline in Lesion Counts, Open comedones, Median", "setting": "inflammatory acne; IR-Treated side", "result": 0.00, "unit": "%"},
      {"measurement": "Change from Baseline in Lesion Counts, Papules, Median", "setting": "inflammatory acne; IR-Treated side", "result": 75.00, "unit": "%"},
      {"measurement": "Change from Baseline in Lesion Counts, Pustules, Median", "setting": "inflammatory acne; IR-Treated side", "result": 37.65, "unit": "%"},
      {"measurement": "Change from Baseline in Lesion Counts, Total Noninflammatory lesions, Median", "setting": "inflammatory acne; IR-Treated side", "result": 0.00, "unit": "%"},
      {"measurement": "Change from Baseline in Lesion Counts, Total Inflammatory lesions, Median", "setting": "inflammatory acne; IR-Treated side, listed as ALA", "result": "73% and 73.21%"},
      {"measurement": "clinical success rate (almost clear or clear categories)", "setting": "inflammatory acne; IR-treated side, week-4", "result": 78, "unit": "%"},
      {"measurement": "additional benefit of IR-treated side in inflammatory lesion count reduction", "setting": "inflammatory acne; IR-treated vs control side, week-4", "result": 35, "unit": "%"},
      {"measurement": "clinical success rate (almost clear or clear categories)", "setting": "inflammatory acne; control side, week-4", "result": 44, "unit": "%"},
      {"measurement": "time until slight erythema post-PDT disappeared", "setting": "inflammatory acne; most patients", "result": "≤ 48", "unit": "h"},
      {"measurement": "duration of acneiform folliculitis", "setting": "inflammatory acne; two patients", "result": "3 to 4", "unit": "days"},
      {"measurement": "Fluoderm Reading", "setting": "[2]; subject one, 14 hour time points, CW-940, 3 h incubation", "result": 51.0},
      {"measurement": "Fluoderm Reading", "setting": "[2]; subject one, 14 hour time points, D50-940, 3 h incubation", "result": 44.5},
      {"measurement": "Fluoderm Reading", "setting": "[2]; subject one, 24 hour time points, CW-940, 3 h incubation", "result": 48.0},
      {"measurement": "Fluoderm Reading", "setting": "[2]; subject one, 24 hour time points, D50-940, 3 h incubation", "result": 36.5},
      {"measurement": "Fluoderm Reading", "setting": "[2]; subject one, 50 hour time points, CW-940, 3 h incubation", "result": 45.0},
      {"measurement": "Fluoderm Reading", "setting": "[2]; subject one, 50 hour time points, D50-940, 3 h incubation", "result": 35.0},
      {"measurement": "Fluoderm Reading", "setting": "[2]; subject one, Control, Just 5-ALA, no irradiation", "result": 37.0},
      {"measurement": "Fluoderm Reading", "setting": "[2]; subject two, 8 hour time points, CW-940, 3 h incubation", "result": 44.0},
      {"measurement": "Fluoderm Reading", "setting": "[2]; subject two, 8 hour time points, D50-940, 3 h incubation", "result": 49.0},
      {"measurement": "Fluoderm Reading", "setting": "[2]; subject two, 8 hour time points, S50-940, 3 h incubation", "result": 51.0},
      {"measurement": "Fluoderm Reading", "setting": "[2]; subject two, 29 hour time points, CW-940, 3 h incubation", "result": 47.0},
      {"measurement": "Fluoderm Reading", "setting": "[2]; subject two, 29 hour time points, D50-940, 3 h incubation", "result": 52.0},
      {"measurement": "Fluoderm Reading", "setting": "[2]; subject two, 29 hour time points, S50-940, 3 h incubation", "result": 47.5},
      {"measurement": "Fluoderm Reading", "setting": "[2]; subject two, 53 hour time points, CW-940, 3 h incubation", "result": 55.0},
      {"measurement": "Fluoderm Reading", "setting": "[2]; subject two, 53 hour time points, D50-940, 3 h incubation", "result": 46.5},
      {"measurement": "Fluoderm Reading", "setting": "[2]; subject two, 53 hour time points, S50-940, 3 h incubation", "result": 55.0},
      {"measurement": "Fluoderm Reading", "setting": "[2]; subject two, Control, Just 5-ALA, no irradiation", "result": 46.0},
      {"measurement": "lesion clearance", "setting": "[3]; left side, no IR pre-treatment", "result": 40, "unit": "%"},
      {"measurement": "lesion clearance", "setting": "[3]; right side, IR pre-treated (970 nm, 40 mW/cm2, 30 min), 90 min incubation", "result": 60, "unit": "%"}
    ]}
  ]
}
